Results taken from patent publication US20180098950A1, “INHIBITORS OF ABETA AND SYNUCLEIN AGGREGATION” (The Feinstein Institute For Medical Research, priority 2006, published 2018).
Several values for one entry are separate records, joined by “and”; a condition that tells them apart may be missing. Identical values can stand only once. Entries after “also recorded” stand apart in the source; their conditions may differ. Like-named read-outs stand apart in the source and are kept apart here.

Assays:
[1] = molecular target: synuclein (Homo sapiens, UniProt P37840); assay: Anti-oligomer antibody ELISA, synuclein
Experimental: The ability of CNI-1493 to prevent aggregation of synuclein was tested by determining the recognition of synuclein by an anti-oligomer antibody (gift of Dr. C. Glabe, University of California at Irvine) in an ELISA assay.

[2] = molecular target: T1, Aβ42 (Homo sapiens, UniProt P05067); assay: Anti-oligomer antibody ELISA, Aβ42
T1 construct: less abundant 42-amino acid form (Aβ42)
T1 sequence (P05067 672-713 limits assumed): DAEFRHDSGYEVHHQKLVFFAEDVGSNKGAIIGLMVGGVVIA

[3] = molecular target: T2, Aβ40 (Homo sapiens, UniProt P05067); assay: Anti-oligomer antibody ELISA, Aβ40
T2 construct: The 40-amino acid form (Aβ340) is the most abundantly produced Aβ peptide
T2 sequence (P05067 672-711 limits assumed): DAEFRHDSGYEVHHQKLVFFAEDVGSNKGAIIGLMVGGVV

[4] = tested on: APP-expressing TgCRND8 mice; assay: Aβ plaque burden by immunohistochemistry and image analysis in TgCRND8 mice; format: in vivo, mouse; settings: 8 mg/kg i.p. twice a week for 8 weeks, vs vehicle
Experimental: Animals. All animal procedures were approved by the office of the district president and the institutional animal care and use committee for the University of Munster. We used the TgCRND8 mouse line (courtesy of David Westaway, University of Toronto, Toronto, Ontario, Canada). TgCRND8 mice encode a double mutant form of amyloid precursor protein 695 (KM670/671 NL+V717F) under the control of the PrP gene promoter (Chishti et al., 2001). Thioflavine S-positive Aβ amyloid deposits are present at 3 months, with dense-cored plaques and neuritic pathology evident from 5 months of age.
(§1) Drug treatment of TgCRND8 mice. APP transgenic TgCRND8 mice at 4 months old received twice a week an i.p. injection of 200 μl containing 200 μg CNI-1493 (8 mg/kg) for 8 weeks. There were four animals in each treatment group. Animals were housed singly in individual cages. At the end of the experimental period, animals were killed by decapitation. The brain was dissected and the hemispheres separated along the midline. One hemisphere was fixed in 4% buffered formaldehyde for 24 h followed by dehydration and paraffin embedding. The other hemisphere was immediately snap-frozen in liquid nitrogen and kept at −80° C.
Immunohistochemistry. Three pairs of 2 μm sagittal brain sections of each transgenic animal were stained for Aβ immunoreactivity. The pairs (10 μm distance) were situated 100 μm, 200 μm and 300 μm lateral from the mid-sagittal fissure. All slices were pretreated with formic acid and automatically stained in a TechMate Instrument (Dako Cytomation, Hamburg, Germany) with 6F/3D anti-Aβ monoclonal antibody to residues 8-17 (Dako, 1:100). For further steps, the Dako StreptABC complex-horseradish peroxidase conjugated “Duet” anti mouse/rabbit antibody kit was used and developed with 3, 3′-diaminobenzidine (DAB) as chromogen. Counterstaining was performed with hematoxylin. All slides were stained in two consecutive procedures making sure that brains of both experimental groups were equally distributed in both procedures.
Image analysis. To quantify Aβ plaque burden, cortices and hippocampi of all stained sections were digitalized by a ColorView II, 3, 3 Mega Pixel CCD camera under constant light and filter settings. Color images were converted to greyscale to obtain best contrast between positive immunoreactivity and background. A constant threshold was chosen for all images to detect immunoreactive staining.
Morphometric measurements were performed by image analysis software “SIS analysis Auto Software 3.2” (Soft Imaging System GmbH, http://www.soft-imaging.org/). Total number and surface of plaques was related to the total area analyzed.

[5] = molecular target: T1, Aβ42; assay: Electron microscopy of Aβ42 oligomer fibrilization; settings: Aβ42 oligomers with vs without CNI-1493
[6] = molecular target: T1, Aβ42; assay: Aβ oligomer ELISA with various concentrations of CNI-1493; settings: Aβ42 with increasing concentrations of CNI-1493
Text: Aβ42 was combined with various concentrations of CNI-1493 and Aβ oligomers were quantified by ELISA using Aβ oligomer-specific antibodies.

[7] = tested on: N2a cells expressing wild type APP695; assay: APP processing analysis in N2a cells; format: cell-based; settings: 24 h treatment
Experimental: APP processing analysis in N2a cells. APP695-transfected N2a cells (Marambaud et al., 2005) were grown in 1:1 DMEM/Opti-MEM supplemented with 5% FBS, penicillin and streptomycin, and 0.2 mg/ml G418. Cells were treated at confluency for 24 h with the indicated concentrations of CNI-1493. Medium was then changed and treatments were continued for another 2 h to allow Aβ secretion. Twenty microliters of conditioned medium were electrophoresed on 16.5% Tris-Tricine gels and transferred onto […] nitrocellulose membranes. Membranes were then microwaved for 5 min in PBS, blocked in 5% fat-free milk in TBS, and incubated with 6E10 (Signet, 1:1000 in Pierce SuperBlock) overnight at 4° C. Cells were washed with PBS and solubilized in ice-cold HEPES buffer (25 mM HEPES, pH 7.4, 150 mM NaCl, 1× Complete protease inhibitor cocktail, Roche) containing 1% SDS. Ten micrograms of extracts were analyzed by western blot with 6E10, R1 (anti-APP C-terminal domain, reference 21), and LN27 (anti-APP1-200, Zymed).

[8] = tested on: F4/80 antigen; assay: Western blot of F4/80 (microglial activation) in brain of treated TgCRND8 mice; format: in vivo, mouse; settings: 8 mg/kg i.p. twice a week for 8 weeks, vs control
Experimental: as §1
Biochemical analysis. Half of the brain was weighed and homogenized in an appropriate volume of T-PER (Perbio, Bonn, Germany) in accordance to the guidelines of the manufacturer. Lysate protein concentration was measured by BCA kit (Perbio). 15-60 μg protein per sample was loaded onto a pre-cast NuPAGE Novex 4-12% Bis-Tris gel and separated using the Novex electrophoresis system (Invitrogen, Karsruhe, Germany). Subsequently, the proteins were transferred onto nitrocellulose membranes (Invitrogen) using the XCell II™ blot (Invitrogen). The immobilized proteins were visualized using MemCode reversible protein staining kit (Perbio). […] Equal protein loading of all membranes was assessed by reprobing with monoclonal antibodies against GAPDH (Acris, Hiddenhausen, Germany).

[9] = tested on: primary neurons; assay: Aβ toxicity in primary neurons; format: cell-based
Text: To determine whether the CNI-1493-treated form of Aβ is toxic, Aβ that had been pretreated with, or without, CNI-1493 was combined with SY5Y neuroblastoma cells. Toxicity was monitored using MTT (thiazolyl blue) reduction (mitochondrial succinate dehydrogenase activity) and lactate dehydrogenase activity (LDH). The MTT and LDH assays correlated with each other. […] Additionally, the protective effect of CNI-1493 was examined in similar assays using primary neurons.

Row | Structure (SMILES) | recognition by anti-oligomer antibody (aggregation) [1] | recognition by anti-oligomer antibody (aggregation) [2] | recognition by anti-oligomer antibody (aggregation) [3] | reduction of plaque area (square micrometers per area of interest in square mm) ([4]; cortex) [%] | reduction of plaque number (plaques per area of interest in square mm) ([4]; cortex) [%] | reduction of plaque number (plaques per area of interest in square mm) ([4]; hippocampus) [%] | reduction of plaque area (square micrometers per area of interest in square mm) ([4]; hippocampus, 8 mg/kg) | recognition by anti-oligomer antibody (aggregation) ([1]; listed as CNI-1492) | formation of fibrillar aggregates (electron microscopy) [5] | Aβ oligomers by ELISA (final OD) [6] | recognition by anti-oligomer antibody (aggregation) ([2]; listed as CNI-1492) | recognition by anti-oligomer antibody (aggregation) ([3]; listed as CNI-1492) | full length APP production (LN27) [7] | β- or γ-secretase cleavage of APP (C99, C83 fragments) [7] | total Aβ secreted into the medium (western blot, 6E10) ([7]; then medium change and continued treatment) | microglial activation, F4/80 expression in brain (western blot) [8] | protection from Aβ toxicity [9]
1 | N=C(N)c1ccc(OCCCCCOc2ccc(C(=N)N)cc2)cc1 [pentamidine, reference compound] | reduced recognition by the antibody | reduced recognition by the antibody | reduced recognition by the antibody |  |  |  |  |  |  |  |  |  |  |  |  |  | 
2 | CC(=NNC(=N)N)c1cc(NC(=O)CCCCCCCCC(=O)Nc2cc(C(C)=NNC(=N)N)cc(C(C)=NNC(=N)N)c2)cc(C(C)=NNC(=N)N)c1.Cl.Cl.Cl.Cl [CNI-1493, N,N′-bis(3,5-diacetylphenyl)decanediamide tetrakis(amidinohydrazone) tetrahydrochloride] | prevents aggregation | prevents aggregation | prevents aggregation | 70 | 57 | 60 | 87% and 86% | reduced recognition by the antibody | do not form the fibrillar aggregates; also recorded: inhibited Aβ42 oligomer fibrilization | reduced the final OD in the ELISA; also recorded: reduction in recognition of Aβ oligomers | reduced recognition by the antibody | reduced recognition by the antibody | not accompanied by reduced levels of APP production | no effect | profound dose-dependent decrease of total Aβ accumulation; also recorded: dose-dependent, dramatic reduction; also recorded: profound dose-dependent decrease of total Aβ secretion | significant reduction in microglial activation; also recorded: decrease of F4/80 signal; also recorded: decline of F4/80 in all CNI-1493 animals | protected the neurons from Aβ toxicity
